Assay results taken from patent US11219670B2, “Targeting CAPN9/CAPNS2 activity as a therapeutic strategy for the treatment of myofibroblast differentiation and associated pathologies” (The Johns Hopkins University, priority 2014, dated 2022).
Where a SMILES comes first, the peptide text is derived from it. The star is where a group is joined. Cbz = O=C(OCc1ccccc1)*; Boc = CC(C)(C)OC(=O)*

T1: Human recombinant mini-CAPN9 (Homo sapiens, UniProt O14815)
T1 construct: made in house; host or cells: E. coli
T1 sequence (O14815 42-337 limits assumed): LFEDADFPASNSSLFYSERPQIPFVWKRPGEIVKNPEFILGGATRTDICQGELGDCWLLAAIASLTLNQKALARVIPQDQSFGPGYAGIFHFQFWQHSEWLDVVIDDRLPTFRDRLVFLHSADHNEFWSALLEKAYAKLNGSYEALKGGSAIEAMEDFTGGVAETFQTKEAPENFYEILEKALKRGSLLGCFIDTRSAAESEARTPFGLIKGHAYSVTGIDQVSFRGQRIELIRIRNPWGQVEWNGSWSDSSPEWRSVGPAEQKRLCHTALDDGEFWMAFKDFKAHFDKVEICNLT


Experiments:
[1] = target: T1, Human recombinant mini-CAPN9; experiment: Biochemical assay for calpain 9 inhibition (FRET peptide substrate, FLIPR); conditions: IC50 by 4 parameter logistic fitting; 10 min preincubation; ambient temperature
Protocol: Human recombinant mini-CAPN9 was expressed in E. coli and purified as described in Davis, T. L., et al. (2007) J Mol Biol 366(1): 216-229.
All enzyme reactions are run at ambient temperature (˜25° C.) in black 384 well assay plates. Inhibitors solutions in DMSO are typically semi-log serially diluted prior to further dilution in assay buffer (Tris-HCl 20 mM, KCl 100 mM, BSA 0.1%, 1 mM DTT). Calpain enzyme stocks are diluted in assay buffer without Ca (II) just prior to use (1 μM) and incubated with serially diluted test compounds at 2× concentrations in the assay plate for 10 min.
After the compound preincubation, the FLIPR liquid handler is used to initiate the reaction by adding a 2× mix of substrate (1 μM Calpain FRET peptide substrate (5-FAM/QXL 520) Anaspec (Catalog# AS-72149)) and Ca (II) (10 mM). Reactions are measured using a FLIPR Tetra reader (Molecular Devices Inc).
Slopes (reaction rates) are calculated within the 0-2 min interval using the ScreenWorks software (Molecular Devices Inc). Slopes are plotted versus test compound concentration to obtain dose-response curves. IC50 values are obtained using 4 parameter logistic fitting.

[2] = tested on: NMuMG cells; experiment: TGFβ1-induced EpMT in NMuMG cells (αSMA western blot, qPCR, immunofluorescence); type: cell-based, Mouse; conditions: for TGFβ1-induced EpMT as measured by αSMA expression: western blot
Protocol: (§1) (FIG. 1B; Levels were normalized to the 72 h TGFβ1 only treated sample for each blot. Students t-test *p<0.05, **p<0.01, † p<0.005, †† p<0.001). […] (FIG. 1H; Levels were normalized to the 72 h TGFβ1 only treated sample for each blot. Students t-test *p<0.05, **p<0.01, † p<0.005, †† p<0.001). FIG. 1G and FIG. 1H show the small molecule […] SB431542 suppressed TGFβ-induced calpain activity (as measured by cleavage of Filamin A, a known calpain substrate) and TGFβ-induced phosphorylation of SMAD2, as measured by western blot (FIG. 1H) and quantified western blot data done in biological replicates (FIG. 1H; Levels were normalized to the 72 h TGFβ1 only treated sample for each blot. Student's t-test *p<0.05, **p<0.01, † p<0.005, †† p<0.001).). […] NMuMG cells pretreated with TGFβ1 for 72 hours to induce EMT, and then treated with calpain inhibitor MDL-28170 while in the continued presence of TGFβ1 for an additional 48 h or 72 h post-induction, can revert to a more epithelial phenotype as assessed by αSMA expression by western blot (FIG. 1I) and quantified western blot data done in biological replicates (FIG. 1J; Levels were normalized to TGFβ1 only treated samples within each time point. Students t-test *p<0.05).
Calpain inhibition was also found to suppress TGFβ-induced expression of genes commonly and functionally associated with fibrosis, such as collagen 1A1, vimentin and matrix metalloproteinase 2/9 (FIG. 1C). A profound decrease in E-cadherin, a cell surface protein highly expressed by epithelial cells, was observed by immunofluorescence upon stimulation with TGFβ but was prevented by treatment with calpain inhibitor MDL-28170 (FIG. 1D). […] (FIG. 1F). […]

[3] = tested on: calpain activity (cleavage of Filamin A); experiment: TGFβ-induced calpain activity in NMuMG cells (cleavage of Filamin A, western blot); type: cell-based, Mouse
Protocol: (§2) (FIG. 1B; Levels were normalized to the 72 h TGFβ1 only treated sample for each blot. Students t-test *p<0.05, **p<0.01, † p<0.005, †† p<0.001). […] (FIG. 1H; Levels were normalized to the 72 h TGFβ1 only treated sample for each blot. Students t-test *p<0.05, **p<0.01, † p<0.005, †† p<0.001).

[4] = tested on: phosphorylation of SMAD2; experiment: TGFβ-induced phosphorylation of SMAD2 in NMuMG cells (western blot); type: cell-based, Mouse
Protocol: as §2

[5] = tested on: MDCK cells; experiment: TGFβ-induced EpMT in MDCK cells (αSMA western blot); type: cell-based, Canine
[6] = tested on: NMuMG cells; experiment: Reversal of pre-established TGFβ-induced myofibroblast differentiation in NMuMG cells (mesenchymal-to-epithelial transition); type: cell-based, Mouse; conditions: NMuMG pretreated with TGFβ 72 h, 48 h and 72 h post-induction
Protocol: as §1
If TGFβ-induced calpain activity is necessary to maintain myofibroblast differentiation, suppression of calpain activity after pre-establishment of myofibroblast differentiation should be sufficient for mesenchymal-to-epithelial transition and provide evidence supporting reversal of a disease state.

[7] = tested on: Primary Normal Human Lung Fibroblasts (NHLF); experiment: TGFβ1-induced FMT in NHLF cells (αSMA western blot); type: cell-based
Excerpt: Resident fibroblasts have also been described to undergo transformation in the presence of high TGFβ. Using Primary Normal Human Lung Fibroblasts (NHLF), it was shown that treatment with calpain inhibitor MDL-28170 (FIG. 8A and FIG. 8B) or siRNA mediated knockdown of CAPNS2 (FIG. 8C) can inhibit TGFβ1-induced FMT as measured by αSMA.

[8] = tested on: PAVEC; experiment: TGFβ1-induced EnMT in PAVEC (qPCR, immunofluorescence); type: cell-based
Excerpt: (FIG. 7B; E-cadherin shown in green, vimentin shown in red, DAPI nuclear marker shown in blue. Scale bar=100 μm). […] Scale bar=100 μm);
Myofibroblasts can derive from cell types other than those of epithelial origin, including endothelial cells and fibroblasts. […] (FIG. 7B). Overexpression of calpastatin inhibits TGFβ1-induced EnMT in PAVEC as measured from gene expression of αSMA, vimentin, E-cadherin, MMP2 and MMP9 (FIG. 7C) and inhibits morphological changes associated with EnMT, such as downregulation of E-cadherin/cell-cell adhesion and upregulation of vimentin. (FIG. 7D).

| Molecule | IC50 [1] [µM] | TGFβ1-induced EpMT as measured by αSMA expression [2] | TGFβ-induced calpain activity (cleavage of Filamin A) [3] | TGFβ-induced phosphorylation of SMAD2 [4] | other results |
| --- | --- | --- | --- | --- | --- |
| O=C1Nc2ccc([N+](=O)[O-])cc2C1=O [5-Nitroisatin] | 42.3 | – | – | – | – |
| CCC(C)[C@H](NS(=O)(=O)c1cccc2ccccc12)C(=O)N[C@H](C=O)Cc1c[nH]c2ccccc12 (stereo partly drawn) [NapSul-Ile-Trp-CHO] | 6.25 | – | – | – | – |
| CCCC[C@@H](C=O)NC(=O)[C@H](CC(C)C)NC(=O)OCc1ccccc1 [Calpeptin] | 2.84 | suppresses | suppressed | without significantly affecting | – |
| NC(=O)c1ccc(-c2nc(-c3ccc4c(c3)OCO4)c(-c3ccccn3)[nH]2)cc1 [SB431542] | – | did not show | did not show | did not show | – |
| CC(C)CCNC(=O)[C@H](CC(C)C)NC(=O)[C@H]1O[C@@H]1C(=O)O [E-64-C] | 35.8 | – | – | – | – |
| CC(=O)N[C@@H](CC(C)C)C(=O)N[C@@H](CC(C)C)C(=O)N[C@H](C=O)CCCNC(=N)N [Leupeptin Hemisulfate] | 9.24 | – | – | – | – |
| CSCC[C@@H](C=O)NC(=O)[C@H](CC(C)C)NC(=O)[C@H](CC(C)C)NC(C)=O [Calpain Inhibitor II (ALLM)] (Ac-Leu-Leu-Met-aldehyde) | 3.32 | – | – | – | – |
| CC(C)[C@H](NC(=O)OCc1ccccc1)C(=O)N[C@H](C=O)Cc1ccccc1 [MDL-28170] (Cbz-Val-Phe-aldehyde) | 1.61 | antagonize TGFβ1-induced EpMT | suppressed | without significantly affecting | TGFβ1-induced reorganization of the actin cytoskeleton to stress fibers ([2]; immunofluorescence): blocked; TGFβ-induced decrease in E-cadherin ([2]; immunofluorescence): prevented; TGFβ-induced expression of genes associated with myofibroblast differentiation and/or fibrosis (Col1A1, Vimentin, MMP2, MMP9) ([2]; quantitative PCR): suppresses; TGFβ-induced EpMT as measured from αSMA expression [5]: suppresses TGFβ-induced EpMT in MDCK cells; E-cadherin expression after pre-established myofibroblast differentiation [6]: reacquired expression of the epithelial marker E-cadherin; actin cytoskeleton organisation after pre-established myofibroblast differentiation [6]: reorganized their actin cytoskeleton from stress fibers to cortical actin; αSMA expression after pre-established myofibroblast differentiation ([6]; continued TGFβ1): decreased expression of αSMA; TGFβ1-induced FMT as measured by αSMA [7]: can inhibit |
| NCCOB(c1ccccc1)c1ccccc1 [2-APB, 2-aminoethoxydiphenyl borate] | – | able to inhibit TGFβ1-induced αSMA expression at high doses | suppressed | without significantly affecting | – |
| CC(C)C[C@H](NC(=O)[C@H]1O[C@@H]1C(=O)O)C(=O)NCCCCNC(=N)N [E-64] | 11.6 | – | – | – | – |
| CC(C)C[C@@H](C=O)NC(=O)[C@H](CC(C)C)NC(=O)[C@H](CC(C)C)NC(=O)OCc1ccccc1 [MG-132] (Cbz-Leu-Leu-Leu-aldehyde) | 9.88 | – | – | – | – |
| CC(C)C[C@@H](C=O)NC(=O)[C@H](CC(C)C)NC(=O)OCc1ccccc1 [Z-Leu-Leu-CHO] | 2.35 | – | – | – | – |
| CC(C)[C@H](NC(=O)CNC(=O)OC(C)(C)C)C(=O)N[C@H](C=O)C(C)C [Boc-Gly-Val-Val-CHO] (Boc-Gly-Val-Val-aldehyde) | 6.68 | – | – | – | – |
| CC(C)C[C@@H](C=O)NC(=O)[C@@H](NS(=O)(=O)c1ccc(F)cc1)C(C)C [Calpain Inhibitor IV SJA-6017] | 2.23 | – | – | – | – |
| NS8593 | – | able to potently inhibit | suppressed | without significantly affecting | TGFβ1-induced FMT as measured by αSMA [7]: able to suppress |
| C=CC[C@@H]1/C=C(\C)C[C@H](C)C[C@H](OC)[C@H]2O[C@@](O)(C(=O)C(=O)N3CCCC[C@H]3C(=O)O[C@H](/C(C)=C/[C@@H]3CC[C@@H](O)[C@H](OC)C3)[C@H](C)[C@@H](O)CC1=O)[C@H](C)C[C@@H]2OC [FK506, tacrolimus] | – | able to potently suppress | – | – | – |
| calpastatin: endogenous calpain inhibitor, mouse calpastatin overexpressed from a bicistronic vector with GFP (protein, UniProt P51125 1-788, looked up, co-expressed with GFP) Calpastatin: MSQPGPKPAASPRPSRGAAARHTQEHVNEKNIGSSSKPGEKKGSDEKKAASLGSSQPSRPHVGEAATATKVTASSAATSKSPSMSTTETKAIPVNKQLEGPDQKRPREQAVKTESKKPQSSEQPVVHEKKSKGGPKEGSEPKNLPKHTSSTGSKHAHKEKALSRSNEQMVSEKPSESKTKFQDVPSAGGESVAGGGTVATALDKVVGKKKEQKPFTPASPVQSTPSKPSDKSGMDAALDDLIDTLGGHEDTNRDDPPYTGPVVLDPMYSTYLEALGIKEGTIPPEYRKLLEKNEGITQPLPDSPKPMGTDQAIDALSSDFTCSSPTGKQSEKEKSTGEIFKAQSAGVTRSSVPPKEKKRKVEEEVINDQALQALSDSLGTRQPDPPSHVSQAEQVKEAKAKEERQEKCGEDEDTVPAEYRLKPAKDKDGKPLLPEPEETSKSLSESELIGELSADFDRSTYQDKPSTPAEKKSNDTSQTPPGETVPRASMCSIRSAPPKLASLKGVVPEDAVETLAGSLGTREADPEHEKTVEDKVKEKAKEEEHEKLGEKEETVPPDYRLEEVKDKDGKPLLPKESQEQLAPLSDDFLLDALSQDFSSPANISSLEFEDAKLSAAISEVVSQTPAPSTHAAAPLPGTEQKDKELDDALDELSDSLGQRPPDPDENKPLDDKVKEKIKPEHSEKLGERDDTIPPEYRHLLDNDGKDKPEKPPTKKTEKPDQDRDPIDALSEDLDSCPSTTETSKNTAKGKSKKTSSSKASKDGEKTKDSSKKTEEVSKPKAKEDARHS | – | virtually no αSMA protein | suppressed | without affecting | morphological changes associated with EnMT (downregulation of E-cadherin/cell-cell adhesion, upregulation of vimentin) ([8]; immunofluorescence): inhibits; TGFβ1-induced EnMT as measured from gene expression of αSMA, vimentin, E-cadherin, MMP2 and MMP9 ([8]; quantitative PCR): inhibits |
